The values below come from US20260103471A1, “CYCLIC UREA THIAZOLYL COMPOUNDS FOR TREATMENT OF HSV” (Assembly Biosciences, Inc., priority 2022, published 2026).

The structures appear in SMILES notation. pEC50: −log10 of the molar value.

One assay relates to HSV-2 G strain. In words: HSV-2 Antiviral Assay (Vero cells, cell viability). Type of assay: cell-based. The conditions noted are these: Human alphaherpesvirus 2, Vero, 120 h, Vero cells, 160 TCID50 HSV-2 G strain, 5 days, cell viability. An outline of the steps:
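Vero cells (1.0×10^4/well, attached overnight) given 8-point 3-fold compound dilutions (0.5% DMSO) then infected with 160 TCID50 HSV-2 G strain in 2% FBS medium for 5 days at 37 °C. Protection read as cell viability by WST-8 absorbance at 460 and 620 nm after 3 h.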
As to `Cc1nc(N2CCCN(c3ccc(-c4cc(F)cc5cc(C(C)(C)O)sc45)cc3)C2=O)sc1S(N)(=O)=O` [Compound 281], the negative-log EC50 (pEC50) is 6.00 to 7.00.
On the same count and under the same terms, with `Cc1nc(N2CCCN(c3ccc(-c4cc(F)cc5c(C)c(C(C)(C)O)sc45)cc3)C2=O)sc1S(N)(=O)=O` [Compound 282] the figure was 6.00 to 7.00; with `Cc1nc(N2CCCN(c3ccc(-c4cc(F)cc5c(C)c(C(C)(C)F)sc45)cc3)C2=O)sc1S(N)(=O)=O` [Compound 283], 6.00 to 7.00.
The same measure, in the same setting: with `Cc1nc(N2CCCN(c3ccc(-c4cc(F)cc5cc(C(C)(C)F)sc45)cc3)C2=O)sc1S(N)(=O)=O` [Compound 284] the figure was 6.00 to 7.00.
Same read-out and setting: then `Cc1nc(N2CCCN(c3ccc(-c4cccc5sccc45)cc3)C2=O)sc1S(N)(=O)=O` [Compound 285], with above 7.00; and `Cc1nc(N2CCCN(c3ccc(-c4ccc(C#N)c5nsnc45)cc3)C2=O)sc1S(N)(=O)=O` [Compound 286], with 5.30 to 6.00; and `Cc1nc(N2CCCN(c3ccc(-c4cc(C(F)(F)F)cc5c4cnn5C)cc3)C2=O)sc1S(N)(=O)=O` [Compound 287], with above 7.00.
For `Cc1nc(N2CCCN(c3ccc(-c4cncc5c4cnn5C)cc3)C2=O)sc1S(N)(=O)=O` [Compound 288], the pEC50 is 6.00 to 7.00.
On the same count and under the same terms, with `Cc1nc(N2CCCN(c3ccc(-c4cc(C(F)(F)F)cc5nn(C)cc45)cc3)C2=O)sc1S(N)(=O)=O` [Compound 289] the figure was 5.30 to 6.00.
The compound `Cc1nc(N2CCCN(c3ccc(-c4cc(C(F)(F)F)cc5c4c(C#N)cn5C)cc3)C2=O)sc1S(N)(=O)=O` [Compound 290] showed a negative-log EC50 (pEC50) of 5.30 to 6.00.
On the same count and under the same terms, with `Cc1nc(N2CCCN(c3ccc(-c4cc(F)cc5c4c(C)cn5C)cc3)C2=O)sc1S(N)(=O)=O` [Compound 291] the figure was above 7.00; with `Cc1nc(N2CCCN(c3ccc(-c4cc(C(F)(F)F)cc5c4c(CO)cn5C)cc3)C2=O)sc1S(N)(=O)=O` [Compound 292], 5.30 to 6.00.
On the same count and under the same terms, with `Cc1nc(N2CCCN(c3ccc(-c4cc(F)cc5c4c(C#N)cn5C)cc3)C2=O)sc1S(N)(=O)=O` [Compound 294] the figure was 6.00 to 7.00; with `Cc1nc(N2CCCN(c3ccc(-c4cc(F)cc5c4c(F)cn5C)cc3)C2=O)sc1S(N)(=O)=O` [Compound 295], above 7.00.
On the same count and under the same terms, with `COc1ccc(-c2ccc(N3CCCN(c4nc(C)c(S(N)(=O)=O)s4)C3=O)cc2)c2ccn(C)c12` [Compound 296] the figure was 6.00 to 7.00; with `Cc1nc(N2CCCN(c3ccc(-c4cc(C(F)(F)F)cc5c4c(F)cn5C)cc3)C2=O)sc1S(N)(=O)=O` [Compound 297], 6.00 to 7.00.
`Cc1nc(N2CCCN(c3ccc(-c4cc(F)cc5c4ccn5C(F)F)cc3)C2=O)sc1S(N)(=O)=O` [Compound 299] gave a negative-log EC50 (pEC50) above 7.00.
Compound `Cc1nc(N2CCCN(c3ccc(-c4ccc(C#N)c5c4ccn5C)cc3)C2=O)sc1S(N)(=O)=O` [Compound 300] gave a pEC50 of 6.00 to 7.00.
In the case of `COc1cc(-c2ccc(N3CCCN(c4nc(C)c(S(N)(=O)=O)s4)C3=O)cc2)c2ccn(C)c2c1` [Compound 301], the pEC50 is above 7.00.
On the same count and under the same terms, then `Cc1nc(N2CCCN(c3ccc(-c4cc(C#N)cc5c4ccn5C)cc3)C2=O)sc1S(N)(=O)=O` [Compound 302], with 6.00 to 7.00; and `COc1cc(-c2ccc(N3CCCN(c4nc(C)c(S(N)(=O)=O)s4)C3=O)cc2)c2nsnc2c1` [Compound 303], with above 7.00.
Same read-out and setting: then `Cc1nc(N2CCCN(c3ccc(-c4cc(C#N)cc5nsnc45)cc3)C2=O)sc1S(N)(=O)=O` [Compound 304], with above 7.00.
Still for that read-out and setting: with `Cc1nc(N2CCCN(c3ccc(-c4snc5c(F)cc(F)cc45)cc3)C2=O)sc1S(N)(=O)=O` [Compound 306] the figure was above 7.00; with `Cc1nc(N2CCCN(c3ccc(-c4snc5c(F)ccc(F)c45)cc3)C2=O)sc1S(N)(=O)=O` [Compound 307], 6.00 to 7.00; with `Cc1nc(N2CCCN(c3ccc(-c4snc5c(F)cc(F)c(F)c45)cc3)C2=O)sc1S(N)(=O)=O` [Compound 308], 6.00 to 7.00.
Compound `Cc1nc(N2CCCN(c3ccc(-c4snc5ccc(-c6ccccc6)cc45)cc3)C2=O)sc1S(N)(=O)=O` [Compound 309] showed a negative logarithm of the EC50 (pEC50) above 7.00.
Same read-out and setting: with `Cc1nc(N2CCCN(c3ccc(-c4cc(F)ccc4F)c4scnc34)C2=O)sc1S(N)(=O)=O` [Compound 311] the figure was 6.00 to 7.00; with `Cc1nc(N2CCCN(c3ccc(-c4ccccc4)c4sncc34)C2=O)sc1S(N)(=O)=O` [Compound 312], 5.30 to 6.00.
The same measure, in the same setting: with `Cc1nc(N2CCCCN(c3ccc(-c4cc(F)cc5nsnc45)cc3)C2=O)sc1S(N)(=O)=O` [Compound 313] the figure was above 7.00.
For the compound `Cc1nc(N2CCN(c3ccc(-c4cc(F)cc5nsnc45)cc3)C2=O)sc1S(N)(=O)=O` [Compound 314], the pEC50 was above 7.00.
In turn, `Cc1nc(N2CC(C)CN(c3ccc(-c4ccccc4F)cc3)C2=O)sc1S(N)(=O)=O` (stereo not shown) [Compound 315] gave a pEC50 above 7.00.
On to `Cc1nc(N2C[C@@H](C)CN(c3ccc(-c4ccccc4F)cc3)C2=O)sc1S(N)(=O)=O` [Compound 317], for which the pEC50 is above 7.00.
Still for that read-out and setting: with `Cc1nc(N2CC(C)CN(c3ccc(-c4ccccc4Cl)cc3)C2=O)sc1S(N)(=O)=O` (stereo not shown) [Compound 321] the figure was above 7.00; with `Cc1nc(N2CC(C)CN(c3ccc(-c4ccccc4)cc3)C2=O)sc1S(N)(=O)=O` (stereo not shown) [Compound 326], above 7.00; with `COc1ccc(F)cc1-c1ccc(N2CC(C)CN(c3nc(C)c(S(N)(=O)=O)s3)C2=O)cc1` (stereo not shown) [Compound 329], above 7.00.
Same read-out and setting: then `Cc1nc(N2CCC(C)N(c3ccc(-c4cc(F)ccc4F)cc3)C2=O)sc1S(N)(=O)=O` (stereo not shown) [Compound 332], with above 7.00; and `Cc1nc(N2CC3(CC3)CN(c3ccc(-c4nnco4)cc3)C2=O)sc1S(N)(=O)=O` [Compound 335], with 5.30 to 6.00.
The same measure, in the same setting: then `Cc1nc(N2CC3(CCCC3)CN(c3ccc(-c4cc(F)ccc4F)cc3)C2=O)sc1S(N)(=O)=O` [Compound 336], with above 7.00; and `Cc1nc(N2CC3(CCCC3)CN(c3ccc(-c4cccc5ncsc45)cc3)C2=O)sc1S(N)(=O)=O` [Compound 337], with above 7.00; and `Cc1nc(N2CC3(COC3)CN(c3ccc(-c4cc(F)cc5nsnc45)cc3)C2=O)sc1S(N)(=O)=O` [Compound 340], with above 7.00.
Compound `Cc1nc(N2CC3(COC3)CN(c3ccc(-c4cc(F)cc5nonc45)cc3)C2=O)sc1S(N)(=O)=O` [Compound 341] had a pEC50 above 7.00.
Compound `COc1c(F)cc(F)cc1-c1ccc(N2CC(C(C)(C)O)CN(c3nc(C)c(S(N)(=O)=O)s3)C2=O)cc1` (stereo not shown) [Compound 345] had a pEC50 of 6.00 to 7.00.
The same measure, in the same setting: then `Cc1nc(N2CC(C(C)(C)O)CN(c3ccc(-c4snc5ccccc45)cc3)C2=O)sc1S(N)(=O)=O` (stereo not shown) [Compound 348], with 6.00 to 7.00.
`Cc1nc(N2CC(C(F)F)CN(c3ccc(-c4cc(F)ccc4F)cc3)C2=O)sc1S(N)(=O)=O` (stereo not shown) [Compound 349] showed a pEC50 above 7.00.
The same measure, in the same setting: then `Cc1nc(N2CC(O)CN(c3ccc(-c4cc(F)ccc4F)cc3)C2=O)sc1S(N)(=O)=O` (stereo not shown) [Compound 353, 2-(3-(2′,5′-difluoro-[1,1′-biphenyl]-4-yl)-5-hydroxy-2-oxotetrahydropyrimidin-1(2H)-yl)-4-methylthiazole-5-sulfonamide], with above 7.00.

The assay is the same for the next values; noted with them: Vero cells, 160 TCID50 HSV-2 G strain, 5 days, cell viability.
`Cc1nc(N2C[C@H](C)CN(c3ccc(-c4ccccc4F)cc3)C2=O)sc1S(N)(=O)=O` [Compound 324] showed a negative logarithm of the EC50 (pEC50) above 7.00.

Broadly, the pEC50 is the EC50 on a negative log10 scale, so that one unit is a factor of ten. The low end stands for a high EC50, the high end for a low EC50.
